Results: patent US20110045101A1, “FUNGICIDAL SUBSTITUTED AZOLES” (E.I. Du Pont De Nemours and Company, priority 2009, published 2011)
Read-outs that look alike come from different tables or passages of the source.

Experiments:
Plasmopara viticola = test: Test A: grape downy mildew, test suspension sprayed after inoculation of grape seedlings, visual disease rating; format: in vivo; settings: 200 ppm, 100 = 100% disease control
Description: General protocol for preparing test suspensions for Tests A-J: The test compounds were first dissolved in acetone in an amount equal to 3% of the final volume and then suspended at the desired concentration (in ppm) in acetone and purified water (50/50 mix) containing 250 ppm of the surfactant Trem® 014 (polyhydric alcohol esters). The resulting test suspensions were then used in tests A-J. Spraying a 200 ppm test suspension to the point of run-off on the test plants was the equivalent of a rate of 500 g/ha. […] Grape seedlings were inoculated with a spore suspension of Plasmopara viticola (the causal agent of grape downy mildew) and incubated in a saturated atmosphere at 20° C. for 24 h. After a short drying period, the grape seedlings were sprayed with the test suspension to the point of run-off and then moved to a growth chamber at 20° C. for 5 days, after which time the grape seedlings were placed back into a saturated atmosphere at 20° C. for 24 h. Upon removal, visual disease ratings were made. […] A dash (-) indicates no test results.

Rhizoctonia solani = test: Test B: turf brown patch on bentgrass seedlings, sprayed the day before inoculation, visual disease rating; format: in vivo; settings: 200 ppm, 100 = 100% disease control
Description: General protocol for preparing test suspensions for Tests A-J: The test compounds were first dissolved in acetone in an amount equal to 3% of the final volume and then suspended at the desired concentration (in ppm) in acetone and purified water (50/50 mix) containing 250 ppm of the surfactant Trem® 014 (polyhydric alcohol esters). The resulting test suspensions were then used in tests A-J. Spraying a 200 ppm test suspension to the point of run-off on the test plants was the equivalent of a rate of 500 g/ha. […] The test suspension was sprayed to the point of run-off on bentgrass (Agrostis sp.) seedlings. […] A dash (-) indicates no test results. All results are for 200 ppm except where followed by “*”, which indicates 40 ppm.

Botrytis cinerea = test: Test C: tomato Botrytis on tomato seedlings, sprayed the day before inoculation, visual disease rating; format: in vivo; settings: 100 = 100% disease control; for pest or weed control at 200 ppm / Test C disease control rating: 200 ppm
Method in brief: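 Rate: 200 ppm sprayed to run-off, corresponding to 500 g/ha; flagged values used 40 ppm. Vehicle was aqueous acetone (1:1) plus 250 ppm surfactant, compounds predissolved in acetone at 3% of volume. Plants were tomato seedlings.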

Alternaria solani = test: Test D: tomato early blight, sprayed the day before inoculation, visual disease rating; format: in vivo; settings: 100 = 100% disease control; for pest or weed control at 200 ppm / Test D disease control rating: 200 ppm
Method in brief: (§1)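 Plants received a run-off spray at 200 ppm (equivalent to 500 g/ha) or, for starred values, 40 ppm. Formulation used acetone at 3% of volume in a 50/50 acetone/water mix carrying 250 ppm Trem® 014.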

Phytophthora infestans = format: in vivo; settings: 200 ppm, 100 = 100% disease control
Septoria nodorum = test: Test F: wheat glume blotch on wheat seedlings, sprayed the day before inoculation, visual disease rating; format: in vivo; settings: 100 = 100% disease control; for pest or weed control at 200 ppm / Test F disease control rating: 200 ppm
Method in brief: as §1

Septoria tritici = test: Test G: wheat leaf blotch on wheat seedlings, sprayed the day before inoculation, visual disease rating; format: in vivo; settings: 100 = 100% disease control; for pest or weed control at 200 ppm / Test G disease control rating: 200 ppm
Method in brief: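 Visual disease ratings taken 19 days after transfer to a 20° C growth chamber, following 48 h in saturated atmosphere at 24° C. Seedlings had been sprayed to run-off one day before spore inoculation. Dose 200 ppm, or 40 ppm where starred.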

[1] = system: Puccinia recondita f. sp. tritici; test: Test I: wheat leaf rust on wheat seedlings, sprayed the day before inoculation, visual disease rating; format: in vivo; settings: 100 = 100% disease control; for pest or weed control at 200 ppm / Test I disease control rating: 200 ppm
Method in brief: as §1

[2] = system: Erysiphe graminis f. sp. tritici; test: Test J: wheat powdery mildew on wheat seedlings, sprayed the day before inoculation, visual disease rating; format: in vivo; settings: 100 = 100% disease control; for pest or weed control at 200 ppm / Test J disease control rating: 200 ppm
Method in brief: as §1

[3] = 0 = no control relative to controls
[4] = Botrytis cinerea, 120 h, 0 = no control relative to controls
[5] = Alternaria solani, 168 h, 0 = no control relative to controls
[6] = Parastagonospora nodorum, 264 h, 0 = no control relative to controls
[7] = Zymoseptoria tritici, 504 h, 0 = no control relative to controls
[8] = Puccinia recondita, 168 h, 0 = no control relative to controls
[9] = Blumeria graminis, 168 h, 0 = no control relative to controls

In the case of `Fc1cc(F)c(-c2c(Cl)nc(Cl)n2-c2ccc(Cl)cc2)c(F)c1` [Compound 6, 2,4-dichloro-1-(4-chlorophenyl)-5-(2,4,6-trifluorophenyl)-1H-imidazole], the “Test A disease control rating” value (Plasmopara viticola; [3]) is reported as 0%, the “Test B disease control rating” value (Rhizoctonia solani; [3]) is reported as 99% and the pest or weed control at 200 ppm (Botrytis cinerea; [4]) is reported as 99%. The pest or weed control at 200 ppm (Alternaria solani; [5]) was 100%, the “Test E disease control rating” value (Phytophthora infestans; [3]) was 0% and the pest or weed control at 200 ppm (Septoria nodorum; [6]) was 95%. For the same molecule, the pest or weed control at 200 ppm (Septoria tritici; [7]) was 100%, the pest or weed control at 200 ppm [1, 8] was 100% and the pest or weed control at 200 ppm [2, 9] was 100%. It also gave a melting point of 112 to 119 °C.
For `Fc1cc(F)c(-c2c(Cl)ncn2-c2ccc(Cl)cc2)c(F)c1` [Compound 1, 4-chloro-1-(4-chlorophenyl)-5-(2,4,6-trifluorophenyl)-1H-imidazole], the pest or weed control at 40 ppm (Botrytis cinerea; Botrytis cinerea, 120 h, 40 ppm (marked *)) was 99%, the pest or weed control at 40 ppm (Alternaria solani; Alternaria solani, 168 h, 40 ppm (marked *)) was 94% and the pest or weed control at 40 ppm (Septoria nodorum; Parastagonospora nodorum, 264 h, 40 ppm (marked *)) was 0%. The pest or weed control at 40 ppm (Septoria tritici; Zymoseptoria tritici, 504 h, 40 ppm (marked *)) was 93%, the pest or weed control at 40 ppm ([1]; Puccinia recondita, 168 h, 40 ppm (marked *)) was 16% and the pest or weed control at 40 ppm ([2]; Blumeria graminis, 168 h, 40 ppm (marked *)) was 99%. The melting point was 102 to 104 °C.
For `Cc1nc(Cl)c(-c2c(F)cccc2F)n1-c1ccc(Cl)cc1` [Compound 2, 4-chloro-1-(4-chlorophenyl)-5-(2,6-difluorophenyl)-2-methyl-1H-imidazole], the “Test B disease control rating” value (Rhizoctonia solani; [3]) was 65%, the pest or weed control at 200 ppm (Botrytis cinerea; [4]) was 99% and the pest or weed control at 200 ppm (Alternaria solani; [5]) was 100%. For the same molecule, the pest or weed control at 200 ppm (Septoria nodorum; [6]) was 100%, the pest or weed control at 200 ppm (Septoria tritici; [7]) was 100% and the pest or weed control at 200 ppm [1, 8] was 100%. It also gave a pest or weed control at 200 ppm [2, 9] of 100% and a melting point of 143 to 145 °C.
In the case of `Fc1cccc(F)c1-c1c(Cl)nc(Cl)n1-c1ccc(Cl)cc1` [Compound 3, 2,4-dichloro-1-(4-chlorophenyl)-5-(2,6-difluorophenyl)-1H-imidazole], the “Test B disease control rating” value (Rhizoctonia solani; [3]) is reported as 99%, the pest or weed control at 200 ppm (Botrytis cinerea; [4]) is reported as 99% and the pest or weed control at 200 ppm (Alternaria solani; [5]) is reported as 100%. It also gave a pest or weed control at 200 ppm (Septoria nodorum; [6]) of 99%, a pest or weed control at 200 ppm (Septoria tritici; [7]) of 100% and a pest or weed control at 200 ppm [1, 8] of 99%. It also gave a pest or weed control at 200 ppm [2, 9] of 100% and a melting point of 123 to 125 °C.
For `COc1cc(F)c(-c2c(-c3ccc(Cl)cc3)c(OC)nn2C)c(F)c1` [compound 578], the “Test A disease control rating” value (Plasmopara viticola; [3]) was 0%, the “Test B disease control rating” value (Rhizoctonia solani; [3]) was 58% and the “Test C disease control rating” value (Botrytis cinerea; [3]) was 98%. The “Test D disease control rating” value (Alternaria solani; [3]) was 37%, the “Test E disease control rating” value (Phytophthora infestans; [3]) was 0% and the “Test F disease control rating” value (Septoria nodorum; [3]) was 0%. The “Test G disease control rating” value (Septoria tritici; [3]) was 100%, the “Test I disease control rating” value [1, 3] was 74% and the “Test J disease control rating” value [2, 3] was 98%.
For `COc1cc(F)c(-c2c(-c3ccc(F)cc3)c(OC)nn2C)c(F)c1` [compound 579], the “Test A disease control rating” value (Plasmopara viticola; [3]) was 0%, the “Test B disease control rating” value (Rhizoctonia solani; [3]) was 92% and the “Test C disease control rating” value (Botrytis cinerea; [3]) was 99%. The “Test D disease control rating” value (Alternaria solani; [3]) was 97%, the “Test E disease control rating” value (Phytophthora infestans; [3]) was 0% and the “Test F disease control rating” value (Septoria nodorum; [3]) was 0%. The “Test G disease control rating” value (Septoria tritici; [3]) was 100%, the “Test I disease control rating” value [1, 3] was 93% and the “Test J disease control rating” value [2, 3] was 100%.
For `COc1ccc(-c2c(OC)nn(C)c2-c2c(F)cc(OC)cc2F)cc1` [compound 580], the “Test A disease control rating” value (Plasmopara viticola; [3]) was 0%, the “Test B disease control rating” value (Rhizoctonia solani; [3]) was 88% and the “Test C disease control rating” value (Botrytis cinerea; [3]) was 98%. The “Test D disease control rating” value (Alternaria solani; [3]) was 0%, the “Test E disease control rating” value (Phytophthora infestans; [3]) was 0% and the “Test F disease control rating” value (Septoria nodorum; [3]) was 0%. The “Test G disease control rating” value (Septoria tritici; [3]) was 100%, the “Test I disease control rating” value [1, 3] was 84% and the “Test J disease control rating” value [2, 3] was 90%.
With `Fc1ccc(-c2c(Cl)ncn2-c2ccc(Cl)c(F)c2)c(Cl)c1` [compound 191] the “Test A disease control rating” value (Plasmopara viticola; 0 = no control) was 0%, the “Test B disease control rating” value (Rhizoctonia solani; 0 = no control) was 0% and the “Test C disease control rating” value (Botrytis cinerea; 0 = no control) was 99%. For the same molecule, the “Test D disease control rating” value (Alternaria solani; 0 = no control) was 26%, the “Test E disease control rating” value (Phytophthora infestans; 0 = no control) was 29% and the “Test F disease control rating” value (Septoria nodorum; 0 = no control) was 0%. The “Test G disease control rating” value (Septoria tritici; 0 = no control) was 97%, the “Test I disease control rating” value ([1]; 0 = no control) was 80% and the “Test J disease control rating” value ([2]; 0 = no control) was 93%.
